Reference: patent US9724312B2, “Agent for the prevention, improvement or treatment of retinal disease” (ROHTO PHARMACEUTICAL CO., LTD., priority 2012, dated 2017)

Key:
PC12 = test: Protective effect against ischemic cell death induced by hypoxia and low glucose (Cell Titer-Glo cell viability); format: cell-based, rat; details: 30 μM, 2 h pre-incubation, then low glucose/zero percent O2 8 h, FIG. 1, n=10, Tukey-Kramer
Description: The progress of visual impairment in glaucoma is associated with retinal ganglion cell (RGC) death due to blood flow failure occurring near the optic nerve (Folia Pharmacol. Jpn. 128, 255-258 (2006)). With the use of PC12, which is a typical neural cell line established from rat adrenal […] pheochromocytoma and used also as a model cell for the functional evaluation of RGC (J Neurosci Res. 2000 May 15; 60(4): 495-503), the cytoprotective effect of GGA against ischemic cell death induced by hypoxia and low glucose was evaluated.
Test samples were prepared as follows. The test substances were four types of GGAs that contain the all-trans form and the 5Z-mono-cis form at a weight ratio of 10:0, 8:2, 6:4, and 0:10, respectively. […]
(§1) After 8 hours of incubation, 100 μL of an equivalent mixture of a cell viability detection reagent Cell Titer-Glo (Promega) and PBS was added to each well and the luminescence produced by the reaction with ATP in living cells was measured with a luminometer (GloMax; Promega). The cell viability was calculated from the measured luminescence by the following formula and the cytoprotective effect of GGA against oxidative stress by hydrogen peroxide was examined. Cell viability(%)=100×[(luminescence of base- or GGA-treated group)/(luminescence of non-treated group)]

ARPE-19 = test: Protective effect for retinal pigment epithelial cells against oxidative stress by hydrogen peroxide; format: cell-based, human; details: all-trans form content 280 μM, 14 h, then 750 μM hydrogen peroxide 2 h, FIG. 4, n=3
Description: The involvement of oxidative stress in ophthalmologic diseases has been widely reported. Such involvement has been observed in, in addition to glaucoma and cataract, retinal diseases such as retinal diseases due to diabetes, hypertension, hyperlipemia, etc., age-related macular degeneration, retinopathy of prematurity, retinal vascular occlusion, retinal light damage, etc. (Nippon Ganka Gakkai Zasshi. 112, 22-29 (2008)). In the retina, the retinal pigment epithelium exists in an environment in which reactive oxygen easily generates (Invest Opthalmol V is Sci. 2006 July 47(7): 3164-3177). […]
as §1, with “2” for “8”, “incubation, the cell culture supernatant was removed, and 200 μL of PBS was added to each well and promptly removed. Then,” for “incubation,”

## CC(=O)CC/C=C(\C)CC/C=C(\C)CC/C=C(\C)CCC=C(C)C [all-trans form, (5E,9E,13E)-6,10,14,18-tetramethyl-5,9,13,17-nonadecatetrae n-2-one]
PC12
  cytoprotective effect compared with GGA 6:4: significantly higher cytoprotective effects
ARPE-19
  cell viability compared with base-treated group: significantly higher cell viabilities
